From PMC5892408, “Novel dual-function near-infrared II fluorescence and PET probe for tumor delineation and image-guided surgery” (Chemical Science, 2018)

Test: Photostability under continuous 808 nm laser illumination
Assay type: physicochemical
Conditions: same conditions as CHS2; 808 nm laser illumination (82 mW cm^-2) for 1 h
Experimental: Fig. 2 (a) Fluorescence emission of CHS2 under 808 nm excitation; (b) photostability of CHS2 in water, PBS and serum under 808 nm laser illumination (105 mW cm^–2) for 1 h; (c) photostability of ICG vs.CHS2 under 808 nm laser illumination (82 mW cm^–2) for 1 h; (d) cellular toxicity of different concentrations of CHS2 in U87MG cell lines.

## CC1(C)C(/C=C/C=C/C=C/C=C2\N(CCCCS(=O)(=O)O)c3ccc4ccccc4c3C2(C)C)=[N+](CCCCS(=O)(=O)[O-])c2ccc3ccccc3c21 [ICG, indocyanine green]
  photostability (fluorescence decay): ~50%
